Like-named read-outs stand apart in the source and are kept apart here.
Legend:
[1] = Pharmacokinetics of oral TPT in rats with zosuquidar and/or Ko143 (Table S2); settings: TPT 20 mg/kg PO + Ko143 10 mg/kg
Procedure: In the modified Taxol® formulation, TPT was prepared at a concentration of 2 mg/mL
TPT was also dissolved in isotonic saline at a concentration of
Tween® 80 was dissolved in
Oral Administration and Plasma Sampling
claims in published maps and institu-for the oral administration of TPT (20 mg/kg) with or without zosuquidar (25 mg/kg),
formulation. After drug administration, blood sampling was performed at 0, 0.05, 0.12,
The SD rats (male, 7‒8-weeks old, 235‒265 g) were divided into four groups (n = 6‒
Blood sampling was done at 0, 0.033, 0.083,
Pheonix WinNonlin ® software (version 8.0–8.1, Pharsight Corporation, Mountain
View, CA, USA) was used to estimate the PK parameters following oral TP T administra-
tion in rats. Non-compartmental analysis was performed using the plasma TPT concen-
tration–time profiles to obtain the following PK parameters: initial plasma concentration
(C0), area under the plasma concentration–time curve from zero to infinity (AUCINF), elim-
ination half-life (t1/2), apparent volume of distribution (Vd) after oral administration (Vd/F),
total clearance (Clt), and total oral clearance (Clt/F). The maximum plasma concentration
(Cmax) and the time required to reach Cmax (Tmax) were directly determined from the plasma
TPT concentration–time curve. The absolute BA (AB) and the relative BA (RB) of TPT were

[2] = design: method as in PMID 8853931; settings: humans; cited from earlier work
[3] = design: method as in PMID 8853931; settings: lactone moiety converted to carboxylated open-ring form; cited from earlier work
[4] = system: CYP1A2, CYP2A6, CYP2C8/9, CYP2C19, CYP2D6, CYP2E, CYP3A, or CYP4A; design: method as in earlier work; settings: According to GlaxoSmithKline; cited from earlier work
in vivo = settings: male, Sprague-Dawley, rat, po, 20 mg/kg
Procedure: (§1) For PK studies, the carotid artery in healthy SD rats (male, 7‒8 weeks, 220‒298 g) was catheterized one day before drug administration [29, 30, 31, 32]. Four to six rats were grouped for the oral administration of TPT (20 mg/kg) with or without compounds (2 mg/kg) in the modified Taxol® formulation and the same dose of TPT in saline only.
(§2) The samples were chromatographically separated using a Capcell Pak C18 UG120 column (4.6 mm × 250 mm, 5 μm, Osaka Soda Co. Ltd., Osaka, Japan) with the mobile phase composed of 10 mM phosphate buffer containing 1% triethylamine (TEA) (pH 3.5) and methanol containing 1% TEA (pH 6.5) (56/44, v/v) at a flow rate of 1.0 mL/min for 30 min and detected at an excitation wavelength of 381 nm and an emission wavelength of 527 nm. The injection volume was 50 μL.
(§3) Pheonix WinNonlin® software (version 8.1, Pharsight Corporation, Mountain View, CA, USA) was used to estimate the PK parameters following oral TPT administration to rats. Non-compartmental analysis was performed using the plasma TPT concentration–time profiles to obtain the following PK parameters: area under the plasma concentration–time curve from zero to infinity (AUCINF), elimination half-life (t1/2), apparent volume of distribution after oral administration (Vd/F), and total oral clearance (Clt/F). The maximum plasma concentration (Cmax) and the time required to reach Cmax (Tmax) were directly measured from the plasma TPT concentration–time curve. The relative BA (RB) of TPT was calculated using the Equation (1):RB (%) = (AUCINF po co-administration)/(AUCINF po control) × 100(1)

[5] = Pharmacokinetics of oral TPT in rats with or without dual inhibitor candidates or formulation; settings: male, Sprague-Dawley, rat, in vivo, 20 mg/kg
Procedure: as §1, §2, §3

P-gp [6] = biological target: T1, P-gp (Homo sapiens, UniProt P08183); assay: TPT accumulation by flow cytometry in P-gp-overexpressing MCF-7/ADR cells; settings: 200 μM TPT, 30 min, vs TPT-only; zosuquidar/Ko143 1 μM
T1 sequence (P08183 whole entry): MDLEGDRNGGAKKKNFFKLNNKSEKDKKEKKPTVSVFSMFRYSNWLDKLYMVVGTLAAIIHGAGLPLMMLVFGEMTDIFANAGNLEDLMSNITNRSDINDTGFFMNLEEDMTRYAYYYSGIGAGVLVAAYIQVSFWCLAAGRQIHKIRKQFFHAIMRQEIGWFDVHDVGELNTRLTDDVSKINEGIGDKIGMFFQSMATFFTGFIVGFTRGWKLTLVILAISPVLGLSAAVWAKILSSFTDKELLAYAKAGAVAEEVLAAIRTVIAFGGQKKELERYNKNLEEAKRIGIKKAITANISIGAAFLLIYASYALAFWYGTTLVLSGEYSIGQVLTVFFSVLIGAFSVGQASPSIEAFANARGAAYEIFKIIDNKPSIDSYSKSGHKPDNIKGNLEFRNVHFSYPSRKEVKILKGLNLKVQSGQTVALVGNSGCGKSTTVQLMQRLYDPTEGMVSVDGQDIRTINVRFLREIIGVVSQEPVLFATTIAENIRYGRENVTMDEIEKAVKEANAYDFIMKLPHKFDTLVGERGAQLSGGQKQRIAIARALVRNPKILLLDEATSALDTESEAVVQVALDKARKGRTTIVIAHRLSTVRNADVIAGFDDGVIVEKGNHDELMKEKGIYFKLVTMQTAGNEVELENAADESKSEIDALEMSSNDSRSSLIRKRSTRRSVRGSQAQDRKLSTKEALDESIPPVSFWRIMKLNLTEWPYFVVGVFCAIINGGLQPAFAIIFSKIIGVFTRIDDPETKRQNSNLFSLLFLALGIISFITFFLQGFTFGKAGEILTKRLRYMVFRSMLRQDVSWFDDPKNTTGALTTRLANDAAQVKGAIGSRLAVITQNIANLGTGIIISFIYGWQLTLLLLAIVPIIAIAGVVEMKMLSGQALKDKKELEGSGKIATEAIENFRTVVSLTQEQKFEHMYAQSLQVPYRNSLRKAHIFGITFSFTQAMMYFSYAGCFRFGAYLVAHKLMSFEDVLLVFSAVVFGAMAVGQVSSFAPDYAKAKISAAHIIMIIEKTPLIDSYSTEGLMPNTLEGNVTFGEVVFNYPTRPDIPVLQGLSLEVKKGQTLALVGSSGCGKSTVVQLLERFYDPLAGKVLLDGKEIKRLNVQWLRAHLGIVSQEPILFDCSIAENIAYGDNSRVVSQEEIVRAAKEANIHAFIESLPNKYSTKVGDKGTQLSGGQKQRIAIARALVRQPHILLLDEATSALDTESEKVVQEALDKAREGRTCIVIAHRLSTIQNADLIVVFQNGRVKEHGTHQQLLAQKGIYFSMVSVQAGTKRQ
Procedure: In this study, the cells were treated with TPT or DNR after incubation with the P-gp and/or BCRP inhibitor candidates or with the excipients for 5 min. When the incubation was complete, the medium containing the substrate and inhibitor candidate or excipient was removed, and the cells were resuspended in cold phosphate buffer saline (PBS) (500 μL). TPT accumulation in the cells was measured using a flow cytometer (NovoCyte 2060R, ACEA Biosciences Inc., San Diego, CA, USA). The mean fluorescence intensity values were calculated, and at least three independent biological duplicates were performed.

P-gp [7] = biological target: T1, P-gp; settings: 10 μM DNR, 30 min, vs DNR-only control; zosuquidar 1 μM
Procedure: In this study, the cells were treated with TPT or DNR after incubation with the P-gp and/or BCRP inhibitor candidates or with the excipients for 5 min. When the incubation was complete, the medium containing the substrate and inhibitor candidate or excipient was removed, and the cells were resuspended in cold phosphate buffer saline (PBS) (500 μL). […] The mean fluorescence intensity values were calculated, and at least three independent biological duplicates were performed.
Substrate Drug Accumulation Study by Flow Cytometry
N.Y.; Sivaraman, A.; Naik, R.; Jin, μL) with 10 μM DNR in the presence and/or absence of 1 μM zosuquidar for 30 min or
TPT accumulation in cells resuspended in cold PBS

[8] = in vivo, 10 mg/kg; cited from earlier work

## COc1ccc2c3c([nH]c2c1)[C@H](CC(C)C)N1C(=O)[C@H](CCC(=O)OC(C)(C)C)NC(=O)[C@@H]1C3 [Ko143]
[1]
  enhanced absorption of TPT: >two-fold

## CC[C@@]1(O)C(=O)OCc2c1cc1n(c2=O)Cc2cc3c(CN(C)C)c(O)ccc3nc2-1 [TPT, Topotecan]
[2]
  half-life: 3 h
  hepatic metabolism: amount of N-desmethyl TPT (of the total amount): < 7%
  oral BA of active TPT: approximately 35%
  renal excretion (of the total administered dose): approximately 40%
[3]
  stability under physiological pH: unstable
[4]
  in vitro activity of CYP1A2, CYP2A6, CYP2C8/9, CYP2C19, CYP2D6, CYP2E, CYP3A, or CYP4A: does not alter
In vivo
  AUC(0-inf): 2360 ± 543 ng·h/mL
  Cmax: 727 ± 265 ng/mL
  Tmax: 0.5 to 1 h
[5]
  Vd/F: 42.1 ± 14.1 L
  half-life: 3.39 ± 1.09 h

## O[C@@H](COc1cccc2ncccc12)CN1CCN([C@@H]2c3ccccc3[C@@H]3[C@H](c4ccccc42)C3(F)F)CC1 [zosuquidar, Zosuquidar]
P-gp [6]
  TPT accumulation in ADR cells: no significant difference
P-gp [7]
  increase in DNR accumulation in P-gp-overexpressing cells: approximately three-fold increase

## silymarin
[8]
  Vd/F and Clt/F of PTX: decreased

Reference: publication PMC8071537
